Data from patent publication US20040152746A1, “Treatment of scarring and related conditions using ppar-gamma activators” (priority 2001, published 2004).
Marks after values point to notes of the source that are not given here.

Tested on: Human dermal fibroblasts differentiated to myofibroblasts with TGF-beta1
Experiment: Myofibroblast number after treatment with pioglitazone (alpha-smooth muscle actin immunohistochemistry)
Type: cell-based
Details: 3 days differentiation medium with 1 ng/ml TGF-beta1, % positive cells/total cells, control 3.47
Procedure: Human dermal fibroblasts were cultured on sterile cover-slips and allowed to adhere for 24 hours in fibroblast medium, i.e. (1.0 ml L-Glutamine (200 mM; Gibco), 1.0 ml non-essential amino acids, NEAA(100×; Gibco), 1.0 ml penicillin/streptomycin (100×Gibco), 10 ml new-born calf serum, NBCS (Gibco), 87 ml Dulbecco's modified Eagle's Medium, DMEM (Gibco)). At confluence, the medium was changed to myofibroblast differentiation medium, i.e. 1.0 ml L-Glutamine (200 mM; Gibco), 1.0 ml non-essential amino acids, NEAA(100×; Gibco), 10 ml penicillin/streptomycin (100×Gibco), 1 ml ITS (Insulin, Transferrin, Selenium)(100×Gibco)) supplemented with 1 ng/ml TGF-beta1 (Sigma). Myofibroblast differentiation was allowed to proceed for 3 days either in the presence of variable concentrations of pioglitazone or without. Myofibroblast number was determined by immunohistochemistry according to the following protocol. Cells were washed in phosphate buffered saline (PBS), then fixed in 3% paraformaldehyde for 5 mins followed by quenching in 50 mM ammonium chloride. The cells were then washed and permeabilised with 0.2% Triton X-100 in PBS. All antibodies were diluted into 0.2% fish skin gelatin (FSG) (Sigma). Prior to antibody detection non-specific binding was blocked using 0.2% FSG in PBS. Mouse anti-human alpha-smooth muscle actin (Sigma) was diluted 1:100 and incubated with the cells for 45 mins followed by washing. Rabbit anti-mouse immunoglobulin horseradish-peroxidase secondary antibody was incubated for 30 mins. Visualisation used Fast-DAB (Sigma) according to manufacturer's instructions. Cells were counterstained with haemotoxylin. […] Haemotoxylin stained nuclei were counted by the software using size-exclusion parameters which excluded small and large debris. Accuracy was determined within the software using binary overlays of the counted objects to examine if any non-nuclei counts occurred or if any nuclei were missed. […] DAB positive cells were counted by hand on the captured images. Counts are expressed as % positive cells/total cells.

Question: For `CCc1ccc(CCOc2ccc(CC3SC(=O)NC3=O)cc2)nc1` (stereo not drawn) [pioglitazone], which “% Myofibroblasts” value (0.1 μM pioglitazone, p < 0.05) is on record?
Answer: The value was 1.81* %.

Question: What about the “% Myofibroblasts” value (1 μM pioglitazone, p < 0.005) of the same compound?
Answer: The value was 0.71** %.

Question: What about the “% Myofibroblasts” value (10 μM pioglitazone, p < 0.005) of the same compound?
Answer: Its value is 0.10** %.
